According to ChEMBL document CHEMBL4376820, “Homodimeric Tobramycin Adjuvant Repurposes Novobiocin as an Effective Antibacterial Agent against Gram-Negative Bacteria” (J Med Chem, 2019):
Activity calls are given as the source filed them. The rule behind the calls is not given here.

What was measured:
[1] = system: Pseudomonas aeruginosa; experiment: Potentiation of novobiocin-induced antibacterial activity against wild type Pseudomonas aeruginosa PAO1 incubated for 18 hrs by CLSI protocol based assay; format: functional, organism-based
[2] = system: Acinetobacter baumannii; experiment: Antibacterial activity against novobiocin-resistant Acinetobacter baumannii ATCC 17978 mutant generated from seven serial passages by checkerboard assay; format: functional
[3] = system: Acinetobacter baumannii; experiment: Antibacterial activity against wild type Acinetobacter baumannii ATCC 17978 by checkerboard assay; format: functional
[4] = system: Acinetobacter baumannii; experiment: Antibacterial activity against colistin-resistant Acinetobacter baumannii ATCC 17978 mutant generated from seven serial passages by checkerboard assay; format: functional
[5] = system: Acinetobacter baumannii; experiment: Antibacterial activity against novobiocin and test compound-resistant Acinetobacter baumannii ATCC 17978 mutant generated from seven serial passages in presence of novobiocin by checkerboard assay; format: functional

| Compound | Activity [1] | MIC [2] [µg/mL] | MIC [3] [µg/mL] | MIC [4] [µg/mL] | MIC [5] [µg/mL] |
| --- | --- | --- | --- | --- | --- |
| CC(C)(C)OC(=O)NC[C@H]1O[C@H](O[C@H]2[C@H](OCCCCc3cn(CCCCO[C@@H]4[C@@H](O[C@H]5O[C@H](CO)[C@@H](O)[C@H](NC(=O)OC(C)(C)C)[C@H]5O)[C@H](NC(=O)OC(C)(C)C)C[C@H](NC(=O)OC(C)(C)C)[C@H]4O[C@H]4O[C@H](CNC(=O)OC(C)(C)C)[C@@H](O)C[C@H]4NC(=O)OC(C)(C)C)nn3)[C@@H](O[C@H]3O[C@H](CO)[C@@H](O)[C@H](NC(=O)OC(C)(C)C)[C@H]3O)[C@H](NC(=O)OC(C)(C)C)C[C@@H]2NC(=O)OC(C)(C)C)[C@H](NC(=O)OC(C)(C)C)C[C@@H]1O | inactive |  |  |  |  |
| [N-]=[N+]=NCCCCO[C@@H]1[C@@H](O[C@H]2O[C@H](CO)[C@@H](O)[C@H](N)[C@H]2O)[C@H](N)C[C@H](N)[C@H]1O[C@H]1O[C@H](CN)[C@@H](O)C[C@H]1N | inactive |  |  |  |  |
| CN(C)c1ccc(O)c2c1C[C@H]1C[C@H]3[C@H](N(C)C)C(O)=C(C(N)=O)C(=O)[C@@]3(O)C(O)=C1C2=O [MINOCYCLINE] |  | 0.5 | 0.125 | < 0.031 | 0.125 |
| C#CCCCCO[C@@H]1[C@@H](O[C@H]2O[C@H](CO)[C@@H](O)[C@H](N)[C@H]2O)[C@H](N)C[C@H](N)[C@H]1O[C@H]1O[C@H](CN)[C@@H](O)C[C@H]1N | inactive |  |  |  |  |
| O=C(O)c1cn(C2CC2)c2cc(N3CCNCC3)c(F)cc2c1=O [CIPROFLOXACIN] |  |  | 1 |  |  |
| CC(C)(O/N=C(\C(=O)N[C@@H]1C(=O)N2C(C(=O)[O-])=C(C[n+]3ccccc3)CS[C@H]12)c1csc(N)n1)C(=O)O [CEFTAZIDIME] |  | 32 | 16 | 1 | 16 |
| CO[C@H]1/C=C/O[C@@]2(C)Oc3c(C)c(O)c4c(O)c(c(/C=N/N5CCN(C)CC5)c(O)c4c3C2=O)NC(=O)/C(C)=C\C=C\[C@H](C)[C@H](O)[C@@H](C)[C@@H](O)[C@@H](C)[C@H](OC(C)=O)[C@@H]1C [RIFAMPIN] |  | 2 | 2 | < 0.031 | 2 |
| O=C(N[C@H](CO)[C@H](O)c1ccc([N+](=O)[O-])cc1)C(Cl)Cl [CHLORAMPHENICOL] |  | 32 | 64 | 8 | 64 |
